What was measured:
SW620 cells (KRAS G12V) = test: Cell-based pERK HTRF assay in SW620 cell (Biological Example 4)
Method in brief: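 SW620 cells were treated for 4 h with compound in a 9-point half-log series from 1 μM top (0.25% DMSO), then lysed. Phospho-ERK was detected by HTRF with d2 and Eu cryptate antibodies after 4–24 h at room temperature, read at 615 nm emission.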

[1] = molecular target: T1, Avi-KRAS G12V (1-169) GppNHp/RAF1 RBD-3xFLAG (52-151) (Homo sapiens, UniProt P01116, G12V); test: Raf1-KRAS G12V-GppNHP disruption HTRF assay (Biological Example 1); assay type: binding
T1 construct: Avi-KRAS G12V (1-169)
T1 sequence (P01116 1-169 isoform P01116-2 G12V): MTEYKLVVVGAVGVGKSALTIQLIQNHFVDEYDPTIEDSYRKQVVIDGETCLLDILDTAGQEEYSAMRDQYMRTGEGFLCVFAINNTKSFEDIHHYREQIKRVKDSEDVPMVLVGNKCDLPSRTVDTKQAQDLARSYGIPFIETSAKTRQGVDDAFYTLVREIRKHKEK
Method in brief: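 Measured with a KRAS/RAF1 HTRF assay at pH 7.5 in 10% DMSO, with two 1 h room-temperature incubations with shaking.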

[2] = molecular target: T2, Avi-KRAS G12D (2-169) GTP/RAF1 RBD-3xFLAG (51-131) (Homo sapiens, UniProt P01116, G12D); test: Raf1-KRAS G12D-GTP disruption HTRF assay (Biological Example 3); assay type: binding; conditions: KRAS G12D, GTP-loaded
T2 construct: Avi-KRAS G12D (2-169)
T2 sequence (P01116 2-169 isoform P01116-2 G12D): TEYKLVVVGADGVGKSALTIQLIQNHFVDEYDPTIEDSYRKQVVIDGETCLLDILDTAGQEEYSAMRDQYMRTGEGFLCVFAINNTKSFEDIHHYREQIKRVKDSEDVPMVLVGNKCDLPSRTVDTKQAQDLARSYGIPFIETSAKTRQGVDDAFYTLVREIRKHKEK
Method in brief: (§1)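 HTRF PPI read-out (ex 320 nm, em 615 nm) after 1 h RT incubation with shaking; data as % activity vs DMSO (100%), IC50 from curve fit. Complex 50 nM, RBD reagent 75 nM; compound 30-0.005 μM, 3-fold.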

[3] = molecular target: T3, Avi-KRAS WT (2-169) GTP/RAF1 RBD-3xFLAG (51-131) (Homo sapiens, UniProt P01116); test: Raf1-KRAS WT-GTP disruption HTRF assay (Biological Example 3); assay type: binding; conditions: KRAS WT, GTP-loaded
T3 construct: Avi-KRAS WT (2-169)
T3 sequence (P01116 2-169 isoform P01116-2): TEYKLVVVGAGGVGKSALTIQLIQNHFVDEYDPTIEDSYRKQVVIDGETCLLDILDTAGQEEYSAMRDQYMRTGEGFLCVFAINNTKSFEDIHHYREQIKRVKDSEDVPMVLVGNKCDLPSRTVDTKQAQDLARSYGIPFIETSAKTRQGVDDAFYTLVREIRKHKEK
Method in brief: as §1

[4] = Homo sapiens, SW-620, SW620 (KRAS G12V) cells
[5] = Homo sapiens, SW-620, SW620 (KRAS G12V) cells, pERK HTRF
[6] = SW620 (KRAS G12V) cells, pERK HTRF
[7] = Homo sapiens, SW-620, SW620 (KRAS G12V) cells, pERK HTRF, class symbols
[8] = KRAS G12V, GppNHp-loaded, class symbols

Row | Compound | IC50 (SW620 cells (KRAS G12V); [4]) | IC50 (SW620 cells (KRAS G12V); [5]) | IC50 ([1]; KRAS G12V-GppNHp/RAF1 RBD HTRF) | IC50 [2] | IC50 [3] | IC50 (SW620 cells (KRAS G12V); SW620 (KRAS G12V) cells) | IC50 (SW620 cells (KRAS G12V); [6]) | IC50 (SW620 cells (KRAS G12V); [7]) | IC50 [1, 8] | IC50 (SW620 cells (KRAS G12V); SW620 (KRAS G12V) cells, pERK HTRF, class symbols)
1 | N#Cc1c(N)sc2c(F)ccc(-c3c(C(F)(F)F)cc4c(N5CCCC[C@@H](O)C5)nc(OC[C@@]56CCCN5C[C@H](F)C6)nc4c3F)c12 [Compound 286] | < 100 nM | < 100 nM | 100 to 1000 nM | 100 to 1000 nM | 100 to 1000 nM |  |  |  |  | 
2 | CC(=O)N1CC(N(C)c2nc(OCC34CCCN3CC(F)C4)nc3c(F)c(-c4ccc(F)c5sc(N)c(C#N)c45)c(C(F)(F)F)cc23)CC1C (stereo not shown) [Compound 291] |  |  | 100 to 1000 nM | 100 to 1000 nM | 100 to 1000 nM | < 100 nM | < 100 nM |  |  | 
3 | CC(=O)N1C[C@H](N(C)c2nc(OC[C@@]34CCCN3C[C@H](F)C4)nc3c(F)c(-c4ccc(F)c5sc(N)c(C#N)c45)c(C(F)(F)F)cc23)C[C@@H]1C [Compound 298] | < 100 nM | < 100 nM | 100 to 1000 nM | 1000 to 10000 nM | 100 to 1000 nM |  |  |  |  | 
4 | CCC(=O)N1CC[C@@H](N(CC)c2nc(OC[C@@]34CCCN3C[C@H](F)C4)nc3c(F)c(-c4ccc(F)c5sc(N)c(C#N)c45)c(C(F)(F)F)cc23)C1 [Compound 327] | < 100 nM | < 100 nM | 100 to 1000 nM | 100 to 1000 nM | 100 to 1000 nM |  |  |  |  | 
5 | CCN(c1nc(OC[C@@]23CCCN2C[C@H](F)C3)nc2c(F)c(-c3ccc(F)c4sc(N)c(C#N)c34)c(C(F)(F)F)cc12)[C@@H]1CCN(C(=O)C(C)C)C1 [Compound 328] | < 100 nM | < 100 nM | 100 to 1000 nM | 100 to 1000 nM | 100 to 1000 nM |  |  |  |  | 
6 | CCN(c1nc(OC[C@@]23CCCN2C[C@H](F)C3)nc2c(F)c(-c3ccc(F)c4sc(N)c(C#N)c34)c(C(F)(F)F)cc12)[C@@H]1CCN(C(=O)C2CC2)C1 [Compound 329] | < 100 nM | < 100 nM | 100 to 1000 nM | 100 to 1000 nM | 100 to 1000 nM |  |  |  |  | 
7 | CCN(c1nc(OC[C@@]23CCCN2C[C@H](F)C3)nc2c(F)c(-c3ccc(F)c4sc(N)c(C#N)c34)c(C(F)(F)F)cc12)[C@H]1CCN(C(=O)C2CC2)C1 [Compound 331] | < 100 nM | < 100 nM | 100 to 1000 nM | 100 to 1000 nM | 100 to 1000 nM |  |  |  |  | 
8 | CCN(c1nc(OC[C@@]23CCCN2C[C@H](F)C3)nc2c(F)c(-c3ccc(F)c4sc(N)c(C#N)c34)c(C(F)(F)F)cc12)[C@H]1CCN(C(=O)C(C)C)C1 [Compound 332] | < 100 nM |  | 100 to 1000 nM | 100 to 1000 nM | 100 to 1000 nM |  | < 100 nM |  |  | 
9 | CN(C)C(=O)c1cc2n(n1)CCN(c1nc(OC[C@@]34CCCN3C[C@H](F)C4)nc3c(F)c(-c4ccc(F)c5sc(N)c(C#N)c45)c(C(F)(F)F)cc13)C2 [Compound 355] | < 100 nM | < 100 nM | 100 to 1000 nM | 100 to 1000 nM | 1000 to 10000 nM |  |  |  |  | 
10 | [2H]C1([2H])O[C@@H]2C[C@H]1N(c1nc(OC[C@@]34CCCN3C[C@H](F)C4)nc3c(F)c(-c4ccc(F)c5sc(N)c(C#N)c45)c(C(F)(F)F)cc13)C2 [Compound 371] | < 100 nM | < 100 nM | 100 to 1000 nM | 100 to 1000 nM | 100 to 1000 nM |  |  |  |  | 
11 | CCN(c1nc(OC[C@@]23CCCN2C[C@H](F)C3)nc2c(F)c(-c3ccc(F)c4sc(N)c(C#N)c34)c(C(F)(F)F)cc12)[C@H]1CCN(C(=O)OC)C1 [Compound 394] | < 100 nM | < 100 nM | < 100 nM | 100 to 1000 nM | 100 to 1000 nM |  |  |  |  | 
12 | CCN(c1nc(OC[C@@]23CCCN2C[C@H](F)C3)nc2c(F)c(-c3ccc(F)c4sc(N)c(C#N)c34)c(C(F)(F)F)cc12)[C@H]1CCN(C(=O)C2CC2(F)F)C1 (stereo partly shown) [Compound 581] | < 100 nM |  |  | ≤ 100 nM | 100 to 1000 nM |  |  | < 100 nM | < 100 nM | 
13 | N#Cc1c(N)sc2c(F)ccc(-c3c(C(F)(F)F)cc4c(N5CCn6nc(C(=O)N7CCOCC7)cc6C5)nc(OCC56CCCN5CC(F)C6)nc4c3F)c12 (stereo not shown) [Compound 646] | < 100 nM |  |  | 100 to 1000 nM | 1000 to 10000 nM |  |  | < 100 nM | < 100 nM | 
14 | CCN(c1nc(OC[C@@]23CCCN2C[C@H](F)C3)nc2c(F)c(-c3ccc(F)c4sc(N)c(C#N)c34)c(C(F)(F)F)cc12)[C@H]1CCN(C(=O)C2C[C@@H]2F)C1 (stereo partly shown) [Compound 692] | < 100 nM |  |  | ≤ 100 nM | ≤ 100 nM |  |  | < 100 nM | < 100 nM | 
15 | N#Cc1c(N)sc2c(F)ccc(-c3c(C(F)(F)F)cc4c(N(C5CC5)[C@H]5CCS(=O)(=O)C5)nc(OC[C@@]56CCCN5C[C@H](F)C6)nc4c3F)c12 [Compound 702] | 100 to 1000 nM |  |  | 1000 to 10000 nM | > 10000 nM |  |  | 100 to 1000 nM | 1000 to 10000 nM | 
16 | CCN(c1nc(OC[C@]23CCCN2C[C@H](F)C3)nc2c(F)c(-c3ccc(F)c4sc(N)c(C#N)c34)c(C(F)(F)F)cc12)[C@H]1CCN(C(=O)C(C)C)C1 [Compound 705] | < 100 nM |  |  | 100 to 1000 nM | 100 to 1000 nM |  |  | < 100 nM | 100 to 1000 nM | 
17 | CCN(c1nc(OC[C@@H]2C[C@@H](OC)CN2C)nc2c(F)c(-c3ccc(F)c4sc(N)c(C#N)c34)c(C(F)(F)F)cc12)[C@H]1CCN(C(=O)C(C)C)C1 [Compound 706] | < 100 nM |  |  | 100 to 1000 nM | 1000 to 10000 nM |  |  | < 100 nM | 100 to 1000 nM | 
18 | CCN(c1nc(OCC23CCCN2CC(F)C3)nc2c(F)c(-c3ccc(F)c4sc(N)c(C#N)c34)c(C(F)(F)F)cc12)C1CC(C)N(C(=O)C2CC2(F)F)C1 (stereo not shown) [Compound 732] |  |  |  | 100 to 1000 nM | 100 to 1000 nM | < 100 nM |  |  | < 100 nM | < 100 nM
19 | Cc1c(C(=O)N2CCOCC2)nn2c1CN(c1nc(OCC34CCCN3CC(F)C4)nc3c(F)c(-c4ccc(F)c5sc(N)c(C#N)c45)c(C(F)(F)F)cc13)CC2 (stereo not shown) [Compound 741] | < 100 nM |  |  | 100 to 1000 nM | 100 to 1000 nM |  |  | < 100 nM | 100 to 1000 nM | 
20 | Cc1c(C(=O)N2CCCC2)nn2c1CN(c1nc(OCC34CCCN3CC(F)C4)nc3c(F)c(-c4ccc(F)c5sc(N)c(C#N)c45)c(C(F)(F)F)cc13)CC2 (stereo not shown) [Compound 744] | < 100 nM |  |  | 100 to 1000 nM | 100 to 1000 nM |  |  | < 100 nM | 100 to 1000 nM | 

From patent US20260042764A1, “COMPOSITIONS AND METHODS FOR INHIBITION OF KRAS” (TheRas, Inc., priority 2022, published 2026)
